Assay [1] has as its system HL-60 cells. In words: Migration of HL-60 cell line toward THP-1 culture supernatant (transmigration assay). In kind it is cell-based, human. The following applies: supernatant of THP-1 cells treated with sample 100 μg/ml 1 h, then Gemcitabine 2 μg/ml 24 h. In outline:
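THP-1 cells pretreated 1 h with compounds, then stimulated with gemcitabine (2 μg/ml) for 24 h; supernatant placed in lower chamber. HL-60 cells (5×10^4/chamber) migrated through laminin I-coated upper chamber; migrated cells quantified by Calcein-AM fluorescence converted to cell number.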

For assay [2], the system named is STAT6. In words: IL-4-induced STAT6 activity, pGL4-STAT6 luciferase reporter in A549 cells. In kind it is cell-based. The settings on record: sample 100 μg/ml 1 h. In outline: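 A549 cells transiently transfected with pGL4-STAT6 reporter (24 h), pretreated with compound 1 h, then stimulated with IL-4 (2 ng/ml or 10 ng/ml) for 20 h. Cells lysed and luciferase luminescence read as STAT6 activity.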

For assay [3], the system named is STAT3. In words: IL-6-induced STAT3 activity, SEAP expression in HEK-Blue IL-6 cells. In kind it is cell-based. The following applies: HEK-Blue IL-6 cells; for STAT3 activity_SEAP expression(%) (average ± deviation): sample 100 μg/ml 1 h, then IL-6 5 ng/ml 24 h, negative control = 100. The protocol: HEK-Blue™ IL-6 cells were used to confirm STAT3 activity by STAT3-induced SEAP (secreted embryonic alkaline phosphatase) expression. In DMEM (Hyclone, Thermo Scientific) medium to which 10% Fetal Bovine Serum was added, HEK-Blue™ IL-6 cells were cultured at a concentration of 1×10^5 cells/ml, and maintained in a 5% CO2 humidified incubator at 37° C. The cultured HEK-Blue™ IL-6 cells were inoculated by 1×10^5 cells/ml. Then, the culture solution was treated with a glycerol derivative compounds of the type shown in Table 4 below for 1 hour and then IL-6 (5 ng/ml) was further incubated for 24 hours for STAT3 activity. Thereafter, the culture supernatant was collected for each well and centrifuged (at 3000 rpm, 5 minutes) to recover the supernatant. The SEAP expression level in the recovered supernatant was mixed with Quanti blue reagent and the supernatant at a ratio of 1:10 and left at 37° C. for about 30 minutes. Then, the SEAP concentration was confirmed at 650 nm wavelength using a spectrophotometer, and the results (STAT3 activity inhibitory ability) thereof are shown in Table 4 and FIG. 3 below.

Assay [4] relates to Aeruginosa K (PAK) of the genus Psuedomonas. The assay is described as follows: Infection inhibition test in mouse model of lung infection with bacteria (CFU in BALF). In kind it is in vivo, Balb/c mice. The following applies: 250 mg/kg oral. Here is the method:
For getting mice model whose lung are infected with bacteria, 12-week old Balb/c male mice were purchased from Koatech Corporation (South Korea) and maintained in certain pathogen-free facilities under moderate temperature and lights cycles. For obtain bacteria to induce lung infection, Aeruginosa K (PAK) of the genus Psuedomonas was incubated in LB broth or LB agar plate overnight at 37° C., and then the culture solution was centrifuged at 13,000×g for 2 minutes to obtain a bacterial pellet. Thereafter, the bacterial pellet was suspended in phosphate buffered saline (PBS), and the optical density of the serial dilution was measured and plated on an agar plate, so that bacterial inoculum having a colony forming unit (CFU) was obtained. A bacterial inoculum solution for infection was prepared at a concentration of 1×10^5 CFU per 20 μl, and the prepared PAK bacterial inoculum (1×10^5 CFU per mouse in 20 μl PBS) was administered to a total of 8 12-week-old Balb/c mice by nasal injection. Four of the PAK-administered groups were orally administered the compound of the present invention (EC_A21) at 250 mg/kg, and PBS was administered to the control group. After 4 hours, samples of bronchoalveolar lavage fluid (BALF) from P. aeruginosa-infected mice were collected, and the collected BALF samples were diluted 1:1000 with PBS. The diluted samples were plated on LB agar and then incubated overnight at 37° C. CFU levels in BALF were confirmed by measuring the number of surviving bacteria by a plate count method. The results are shown in Table 8, FIG. 7 and FIG. 8 below.

Where [5] appears, read: then IL-4 (10 ng/ml) 20 h, Table 10.
The mark [6] stands for this setting: then IL-4 (2 ng/ml) 20 h, Table 9.

“And” between values parts separate entries of the source, which are not always exact repeats. Equal values may be shown once.

20 molecules from patent US12187672B2, “1,2-diacylglycerol compound, preparation method therefor, and immunomodulator containing same as active ingredient” (ENZYCHEM LIFESCIENCES CORPORATION, priority 2018, dated 2025) can be followed below.

`CCCCC/C=C\C/C=C\CCCCCCCC(=O)OC(COC(=O)CC)COC(=O)CCCCCCC` (centres unmarked) [EC_A87]: the “Number of HL-60 cells migrated through Transwell” value (shortened to “Number”) in assay [1] turned out to be 7198.0 Cell Number. In addition, the “STAT6 activity_Luciferase activity (average ± deviation)” value in assay [2] (setting [5]) is reported as 17258.7 ± 3007.1.

On to `CCCCC/C=C\C/C=C\CCCCCCCC(=O)OC(COC(=O)CCCCCC)COC(=O)CCCCCCCCCCCCCCC` (centres unmarked) [EC_A83], for which the “Number” value in assay [1] worked out at 7316.6 Cell Number. Besides, the “STAT6 activity_Luciferase activity (average ± deviation)” value in assay [2] (setting [5]) was 18788.2 ± 2805.4.

Turning to `CCCCC/C=C\C/C=C\CCCCCCCC(=O)OC(COC(=O)CCCC)COC(=O)CCCCCCCCCCC` (centres unmarked) [EC_A93], the “Number” value in assay [1] stood at 6828.6 Cell Number. For the same molecule, the “STAT6 activity_Luciferase activity (average ± deviation)” value in assay [2] (setting [5]) is recorded as 15562.5 ± 900.7.

As to `CCCCC/C=C\C/C=C\CCCCCCCC(=O)OC(COC(=O)CCCC)COC(=O)CCCCCCCCC` (centres unmarked) [EC_A99], the “Number” value in assay [1] worked out at 7164.9 Cell Number. Besides, the “STAT6 activity_Luciferase activity (average ± deviation)” value in assay [2] (setting [5]) was determined as 17407.0 ± 1347.6.

As for `CCCCCC=CCC=CCCCCCCCC(=O)OC(COC(=O)CCCCCCC)COC(=O)C(C)(C)C` (centres unmarked) [EC_A89], the “Number” value in assay [1] came to 6969.9 Cell Number. The “STAT6 activity_Luciferase activity (average ± deviation)” value in assay [2] (setting [5]) is listed as 18635.5 ± 846.4.

For the molecule `CCCCC/C=C\C/C=C\CCCCCCCC(=O)OC(COC(=O)CCCCCCCCC)COC(=O)C(C)CC` (centres unmarked) [EC_A102], the “Number” value in assay [1] is 8091.5 Cell Number. In assay [2] (setting [5]), the “STAT6 activity_Luciferase activity (average ± deviation)” value is reported as 18719.2 ± 2558.5.

Turning to `CCCCC/C=C\C/C=C\CCCCCCCC(=O)OC(COC(C)=O)COC(=O)CCCCCCCCCCCCCCC` (centres unmarked) [EC-18, 1-palmitoyl-2-linoleoyl-3-acetylglycerol, reference compound], the “decrease of STAT3 activity compared to the IL-6 cytokine-treated group” value in assay [3] (100 μg/ml) is given as “about 25%”. Besides, the “STAT3 activity_SEAP expression(%) (average ± deviation)” value in assay [3] is 173.0 ± 7.9%. Further, the “Number” value in assay [1] amounted to 2697.2 Cell Number. Moreover, the “STAT6 activity_Luciferase activity (average ± deviation)” value in assay [2] (setting [6]) came out at 462.5 ± 161.7; in assay [2] (setting [5]) it was 18878.0 ± 500.8.

As to `CCCCC/C=C\C/C=C\CCCCCCCC(=O)OC(COC(=O)CCC)COC(=O)CCCCCCCCC` (centres unmarked) [EC_A98], the “Number” value in assay [1] stood at 11056.8 Cell Number. Moreover, the “STAT6 activity_Luciferase activity (average ± deviation)” value in assay [2] (setting [5]) amounted to 14727.2 ± 129.2.

With `CCCCC/C=C\C/C=C\CCCCCCCC(=O)OC(COC(=O)CCCCCCCCCCC)COC(=O)C(C)CC` (centres unmarked) [EC_A96], the “Number” value in assay [1] is recorded as 15110.8 Cell Number. The “STAT6 activity_Luciferase activity (average ± deviation)” value in assay [2] (setting [5]) is 14593.2 ± 2168.7.

Take `CCCCC/C=C\C/C=C\CCCCCCCC(=O)OC(COC(=O)CCCC)COC(=O)CCCCCCC` (centres unmarked) [EC_A86]: the “Number” value in assay [1] was 18542.0 Cell Number. In addition, the “STAT6 activity_Luciferase activity (average ± deviation)” value in assay [2] (setting [5]) came out at 18158.0 ± 3182.4.

Turning to `CCCCC/C=C\C/C=C\CCCCCCCC(=O)OC(COC(=O)CCCCCCCCC)COC(=O)C(C)(C)C` (centres unmarked) [EC_A101], the “Number” value in assay [1] amounted to 4848.9 Cell Number. Besides, the “STAT6 activity_Luciferase activity (average ± deviation)” value in assay [2] (setting [5]) is listed as 19438.7 ± 580.2.

As to `CCCCC/C=C\C/C=C\CCCCCCCC(=O)OC(COC(=O)CCCCCCCCC)COC(=O)C(C)C` (centres unmarked) [EC_A100], the “Number” value in assay [1] turned out to be 8947.2 Cell Number. In addition, the “STAT6 activity_Luciferase activity (average ± deviation)” value in assay [2] (setting [5]) was found to be 14212.0 ± 1008.8.

Regarding `CCCCC/C=C\C/C=C\CCCCCCCC(=O)OC(COC(=O)CCCCCCC)COC(=O)C(C)C` (centres unmarked) [EC_A88], in assay [1], the “Number” value was determined as 17552.5 Cell Number. In addition, the “STAT6 activity_Luciferase activity (average ± deviation)” value in assay [2] (setting [5]) is given as 17409.5 ± 1849.8.

In the case of `CCCCC/C=C\C/C=C\CCCCCCCC(=O)OC(COC(=O)CCC)COC(=O)CCCCCCC` (centres unmarked) [EC_A85], the “Number” value in assay [1] was 7687.7 Cell Number. In addition, in assay [2] (setting [5]), the “STAT6 activity_Luciferase activity (average ± deviation)” value is given as 19878.2 ± 4338.5.

Regarding `CCCCC/C=C\C/C=C\CCCCCCCC(=O)OC(COC(=O)CCCCCCCCCCCCCCC)COC(=O)C1CC1` (centres unmarked) [EC_A79], the “Number” value in assay [1] worked out at 12527.5 Cell Number. In addition, in assay [2] (setting [5]), the “STAT6 activity_Luciferase activity (average ± deviation)” value was 20037.7 ± 786.0.

Regarding `CCCCC/C=C\C/C=C\CCCCCCCC(=O)OC(COC(=O)CCCCCCCCCCCCCCC)COC(C)C` (centres unmarked) [EC_A21], in assay [3], the “STAT3 activity_SEAP expression(%) (average ± deviation)” value is 224.1 ± 22.4%. Further, the “bacterial CFU in BALF, average ± deviation” value in assay [4] (PAK 1×10^5 CFU nasal, BALF after 4 hours, 4 Balb/c mice) was 14.0 ± 6.0 10^3 CFU/ml. Further, the “bacterial CFU in BALF, individual mouse” value in assay [4] (PAK 1×10^5 CFU nasal, BALF after 4 hours, Balb/c mice, 250 mg/kg) is 8.0 10^3 CFU/ml and 19.0 10^3 CFU/ml and 20.0 10^3 CFU/ml and 14.0 10^3 CFU/ml. Also, the “bacterial CFU in BALF versus PAK alone group (in words)” value in assay [4] (fourth hour after PAK administration) is “significantly lower than that of the PAK alone group”. For the same molecule, the “Number” value in assay [1] is given as 1986.3 Cell Number. Besides, the “STAT6 activity_Luciferase activity (average ± deviation)” value in assay [2] (setting [6]) was 880.0 ± 50.0.

For `CCCCC/C=C\C/C=C\CCCCCCCC(=O)OC(COC(=O)CC)COC(=O)CCCCCCCCCCC` (centres unmarked) [EC_A91], the “Number” value in assay [1] was 9429.8 Cell Number. In addition, the “STAT6 activity_Luciferase activity (average ± deviation)” value in assay [2] (setting [5]) came out at 22036.0 ± 4089.4.

Take `CCCCC/C=C\C/C=C\CCCCCCCC(=O)OC(COC(=O)CCC)COC(=O)CCCCCCCCCCC` (centres unmarked) [EC_A92]: the “Number” value in assay [1] amounted to 2891.6 Cell Number. Also, in assay [2] (setting [5]), the “STAT6 activity_Luciferase activity (average ± deviation)” value was found to be 17237.2 ± 317.7.

Consider `CCCCC/C=C\C/C=C\CCCCCCCC(=O)OC(COC(=O)CC)COC(=O)CCCCCCCCCCCCCCC` (centres unmarked) [EC_A78], for which the “Number” value in assay [1] is 23396.6 Cell Number. The “STAT6 activity_Luciferase activity (average ± deviation)” value in assay [2] (setting [5]) came out at 19208.7 ± 2129.6.

For `CCCCC/C=C\C/C=C\CCCCCCCC(=O)OC(COC(=O)CC)COC(=O)CCCCCCCCC` (centres unmarked) [EC_A97], in assay [1], the “Number” value amounted to 7440.6 Cell Number. Further, the “STAT6 activity_Luciferase activity (average ± deviation)” value in assay [2] (setting [5]) is reported as 16787.0 ± 4102.6.
